Laboratory results from PubChem BioAssay (NCI).
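Cells were grown in 96-well plates and exposed to each compound for 48 hours at five concentrations; endpoints were interpolated linearly between bracketing concentrations, or set to the highest concentration if not reached. The concentration for 50% growth inhibition is given as GI50. TGI marks complete inhibition of growth.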

Columns and labels:
Experiment in all cases: NCI-60 cell line screen, 48 h
SN12C renal = system: SN12C renal
UACC-62 melanoma = system: UACC-62 melanoma
LOX IMVI melanoma = system: LOX IMVI melanoma
U251 CNS = system: U251 CNS
786-0 renal = system: 786-0 renal
TK-10 renal = system: TK-10 renal
COLO 205 colon = system: COLO 205 colon
OVCAR-5 ovarian = system: OVCAR-5 ovarian
CAKI-1 renal = system: CAKI-1 renal

| Structure (SMILES) | TGI (SN12C renal) [µM] | TGI (UACC-62 melanoma) [µM] | TGI (LOX IMVI melanoma) [µM] | TGI (U251 CNS) [µM] | TGI (786-0 renal) [µM] | TGI (TK-10 renal) [µM] | TGI (COLO 205 colon) [µM] | TGI (OVCAR-5 ovarian) [µM] | TGI (CAKI-1 renal) [µM] | GI50 (SN12C renal) [µM] | GI50 (UACC-62 melanoma) [µM] | GI50 (CAKI-1 renal) [µM] | GI50 (786-0 renal) [µM] | GI50 (TK-10 renal) [µM] | GI50 (COLO 205 colon) [µM] | GI50 (OVCAR-5 ovarian) [µM] |
| --- | --- | --- | --- | --- | --- | --- | --- | --- | --- | --- | --- | --- | --- | --- | --- | --- |
| C(=C1\CCC/C(=C/c2ccccc2)C1=NNc1ccccc1)/c1ccccc1 | > 100 | > 100 | > 100 | > 100 | > 100 | > 100 | > 100 | > 100 | – | – | – | – | – | – | – | – |
| OCCc1cnco1 | > 100 | > 100 | > 100 | > 100 | > 100 | > 100 | > 100 | – | – | – | – | – | – | – | – | – |
| CC1=C(C(=O)Nc2ccccc2C)C(c2ccc(N(C)C)cc2)C(C(=O)Nc2ccccc2C)=C(C)N1 | > 100 | > 100 | > 100 | > 100 | > 100 | > 100 | > 100 | > 100 | – | – | – | – | – | – | – | – |
| CSC(=S)N(C)NC(=O)c1cccc(C(=O)NN(C)C(=S)SC)n1 | 92 | 55.8 | > 100 | 54.6 | 91.8 | – | > 100 | > 100 | – | – | – | – | – | – | – | – |
| COc1cc2c(c3oc(-c4ccc5c(c4)OCO5)c(O)c(=O)c13)CCC(C)(C)O2 | > 100 | > 100 | > 100 | – | > 100 | > 100 | > 100 | – | – | – | – | – | – | – | – | – |
| Cc1cn(C2C=CC(=O)C(C)O2)c(=O)[nH]c1=O (configuration not stated) | 29.8 | 29.1 | 26.6 | 28.6 | 32.2 | 28.5 | 32 | – | 31.5 | – | – | – | – | – | – | – |
| CC(=O)OCCC/C(=C\c1ccc2ccccc2c1)[N+](=O)[O-] | 3.32 | 2.98 | – | – | 3.35 | 3.4 | 3.43 | 3.42 | 3.28 | 1.54 | 1.47 | 1.5 | 1.81 | 1.58 | 1.57 | 1.75 |
| CCCNC(=O)c1cc2ccccc2cc1C(=O)OC | > 100 | > 100 | – | > 100 | > 100 | > 100 | > 100 | > 100 | > 100 | – | – | – | – | – | – | – |
| CSc1nc2c(nc(N)n2C2OCC(O)C(O)C2O)c(=O)[nH]1 (configuration not stated) | > 100 | > 100 | > 100 | > 100 | > 100 | > 100 | > 100 | – | > 100 | – | – | – | – | – | – | – |
| COc1ccc(-c2cc(-c3ccccc3)c(C#N)c(=O)[nH]2)cc1 | > 100 | > 100 | > 100 | > 100 | > 100 | > 100 | > 100 | > 100 | – | – | – | – | – | – | – | – |
